Molecular target: T1, recombinant human sphingosine kinase 1 (rhSphK1) (Homo sapiens, UniProt Q9NYA1)
T1 construct: gene SPHK1; full-length (1155 bp CDS), 6×His tag, ~50 kDa, E. coli
Assay: Microscale thermophoresis (SphK2 inhibitor used as control)
Assay type: binding

T1 sequence (Q9NYA1 whole entry): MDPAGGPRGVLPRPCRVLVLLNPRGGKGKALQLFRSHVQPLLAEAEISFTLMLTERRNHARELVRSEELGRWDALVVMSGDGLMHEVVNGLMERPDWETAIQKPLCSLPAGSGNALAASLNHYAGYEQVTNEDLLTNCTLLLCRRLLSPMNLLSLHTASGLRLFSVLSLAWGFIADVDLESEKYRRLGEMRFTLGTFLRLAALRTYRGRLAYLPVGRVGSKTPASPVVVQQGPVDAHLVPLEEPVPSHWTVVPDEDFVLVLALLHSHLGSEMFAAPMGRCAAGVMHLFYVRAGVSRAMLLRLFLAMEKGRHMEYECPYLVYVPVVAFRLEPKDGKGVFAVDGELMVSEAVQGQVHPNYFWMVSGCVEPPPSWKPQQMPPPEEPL

## O=C(NCc1ccncc1)C12CC3CC(C1)CC(c1ccc(Cl)cc1)(C3)C2 [ABC294640]
  Kd: 70.6 µM
